Experimental data reported in paper PMC10641913 (ACS Medicinal Chemistry Letters, 2023).
Where “and” joins values, the source holds several entries; their conditions need not be identical. Equal entries are not always repeated.

How the values were obtained:
Sm.TRPMPZQ = Sm.TRPMPZQ (Schistosoma mansoni, UniProt A0A5K4F0X5); test: cell-based; assay type: cell-based; conditions: for this work: EC50 (μM) Sm.TRPMPZQ / EC50: HEK293 transient expression, mean ± SEM, n ≥ 3 independent transfections; for EC50: read-out: this work: EC50 (μM) Sm.TRPMPZQ
Protocol: (§1) This was done using a fluorescence-based reporter assay to measure changes in cytosolic Ca^2+ in HEK293 cells transiently expressing the individual TRPMPZQ ion channels.
(§2) Sprague et. al. Supporting Information
(§3) Cell Culture and transfection. Activation of the three TRPMPZQ orthologs1 (Sm.TRPMPZQ, Eg.TRPMPZQ and Mc.TRPMPZQ) was measured using a Ca2+ reporter assay, following transient transfection of codon-optimized constructs (Genscript) into HEK293 cells.
(§4) The HEK293 cell line (ATCC CRL-1573.3) was authenticated by STR profiling (ATCC), and cells were evaluated for mycoplasma contamination by monthly scheduled testing (LookOut® Mycoplasma PCR Detection Kit, Sigma). HEK293 cells were cultured at 37 °C in a humidified incubator in Dulbecco’s Modified Eagle Medium (DMEM) supplemented with 10% fetal bovine serum (FBS), penicillin (100 units/mL), streptomycin (100 μg/mL), and L-glutamine (290 μg/mL). Cells were transfected using Lipofectamine-2000 at a density of 3x10^6 cells per petri dish (100 mm diameter) 24 h prior to replating into 384 well plates for functional assays.
(§5) Ca2+ imaging assays. Ca2+ imaging assays were performed using a Fluorescence Imaging Plate Reader (FLIPR TETRA, Molecular Devices). HEK293 cells (naïve or transfected) were seeded (20,000 cells/well) in a black-walled clear-bottomed poly-d-lysine coated 384-well plate (Greiner Bio-One) in DMEM growth media supplemented with 10% FBS. After 24 h, growth medium was removed, and cells were loaded with a fluorescent Ca2+ indicator (Fluo-4 NW dye, Invitrogen) by incubation (20 µL per well, 1 h at 37°C) in Hanks' balanced salt solution (HBSS) assay buffer containing probenecid (2.5 mM) and HEPES (20 mM). Drug dilutions were prepared in assay buffer, without probenecid and dye, in ‘V’-shape 384-well plates (Greiner Bio-one, Germany). After indicator loading, the Ca2+ assay was performed at room temperature. Basal fluorescence was monitored for 20 s, then 5 μL of each drug added, and the signal (raw fluorescence units) was monitored over an additional 250 s. Changes in fluorescence were calculated by subtracting the average basal fluorescence (averaged values between 0 to 20 s) from the maximum fluorescence value. These values were normalized to the response of (±)-PZQ at the corresponding TRPMPZQ channel and plotted. Concentration-response curves were generated in GraphPad Prism (v.
(§6) 9.5.1) using the default three -parameter curve fitting and constraining the bottom of the curve to 0%. The reported EC 50 values represent the mean ± SEM of n ≥ 3 independent transfections. […]

H. nana = test system: H. nana; parameters: key: “+++” indicates a complete reduction of worms at 25 mg/kg dosing (×1); “++” indicates complete reduction of worms at 500 mg/kg dosing (×1); “+” indicates less than 90% worm reduction at 500 mg/kg dosing (×1); “0” indicates no effect at 500 mg/kg dosing (×1); conditions: mouse model, dosing ×1; ref [1]; cited from earlier work
S. mansoni [1] = conditions: ref [1]; cited from earlier work
[2] = test system: E. multilocularis protoscoleces; test: Cestode motility assay on protoscoleces; assay type: cell-based, Echinococcus multilocularis; conditions: for IC50: Echinococcus multilocularis
Protocol: To determine IC50 values, concentration–response curves were obtained at multiple time points (Figure 2E–G).
Figure 2 E. multilocularis protoscoleces after treatment with (A) DMSO, (B) (±)-PZQ (1 μM), (C) (R)-2 (30 μM), and (D) (S)-2 (100 μM). (E–G) Concentration–response motility graphs of E. multilocularis protosoleces after treatment with (±)-PZQ (blue circles), (R)-2 (red circles), and (S)-2 (purple circles) after (E) 0.5 h, (F) 12 h, and (G) 24 h. Data are plotted as % motility vs vehicle (DMSO) control (mean ± SEM). […]
Cestode motility assays . Protoscoleces of E. multilocularis strain MB17 were isolated from metacestode material grown in experimentally infected gerbils (kindly provided by Prof. Dr. K. Brehm, University of Würzburg, Germany). Extraction and acti vation of protoscoleces, as well as subsequent motility assays were performed as described previously. 2 In short, protoscoleces were activated by 10% DMSO for 3 h at 37°C, in a humid atmosphere, with 5% CO 2 and left to recover overnight in DMEM (Biochrom, Berlin, Germany) supplemented with 10% FBS (Biochrom) at 37°C, in a humid atmosphere, with 5% CO 2. The next day, 25 protoscoleces were distributed into individual wells of a white, flat -bottom 384 well plate (Huberlab, Aesch, Switzerland). PZQ analogs were added […]
The assay plate was sealed with a clear view seal foil (Huberlab), and motility was measured in a live cell imaging system (Nikon TE2000E, Hamatsu ORCA ER

S. mansoni [3] = test system: S. mansoni; parameters: key: “+++” indicates a complete reduction of worms at 50 mg/kg dosing (×5); “++” indicates complete reduction of worms at 500 mg/kg dosing (×5); “+” indicates less than 90% worm reduction at 500 mg/kg dosing (×5); “0” indicates no effect at 500 mg/kg dosing (×5); conditions: mouse model, dosing ×5; ref [1]; cited from earlier work
Eg.TRPMPZQ = Eg.TRPMPZQ (Echinococcus granulosus, UniProt W6UVV9); assay type: cell-based; conditions: Eg.TRPMPZQ and Mc.TRPMPZQ; for activity at cestode TRPMPZQ orthologs (in words): both cestode channels
Protocol: as §1, §2, §3, §4, §5, §6

Chain of Eg.TRPMPZQ (W6UVV9 entry or part of it): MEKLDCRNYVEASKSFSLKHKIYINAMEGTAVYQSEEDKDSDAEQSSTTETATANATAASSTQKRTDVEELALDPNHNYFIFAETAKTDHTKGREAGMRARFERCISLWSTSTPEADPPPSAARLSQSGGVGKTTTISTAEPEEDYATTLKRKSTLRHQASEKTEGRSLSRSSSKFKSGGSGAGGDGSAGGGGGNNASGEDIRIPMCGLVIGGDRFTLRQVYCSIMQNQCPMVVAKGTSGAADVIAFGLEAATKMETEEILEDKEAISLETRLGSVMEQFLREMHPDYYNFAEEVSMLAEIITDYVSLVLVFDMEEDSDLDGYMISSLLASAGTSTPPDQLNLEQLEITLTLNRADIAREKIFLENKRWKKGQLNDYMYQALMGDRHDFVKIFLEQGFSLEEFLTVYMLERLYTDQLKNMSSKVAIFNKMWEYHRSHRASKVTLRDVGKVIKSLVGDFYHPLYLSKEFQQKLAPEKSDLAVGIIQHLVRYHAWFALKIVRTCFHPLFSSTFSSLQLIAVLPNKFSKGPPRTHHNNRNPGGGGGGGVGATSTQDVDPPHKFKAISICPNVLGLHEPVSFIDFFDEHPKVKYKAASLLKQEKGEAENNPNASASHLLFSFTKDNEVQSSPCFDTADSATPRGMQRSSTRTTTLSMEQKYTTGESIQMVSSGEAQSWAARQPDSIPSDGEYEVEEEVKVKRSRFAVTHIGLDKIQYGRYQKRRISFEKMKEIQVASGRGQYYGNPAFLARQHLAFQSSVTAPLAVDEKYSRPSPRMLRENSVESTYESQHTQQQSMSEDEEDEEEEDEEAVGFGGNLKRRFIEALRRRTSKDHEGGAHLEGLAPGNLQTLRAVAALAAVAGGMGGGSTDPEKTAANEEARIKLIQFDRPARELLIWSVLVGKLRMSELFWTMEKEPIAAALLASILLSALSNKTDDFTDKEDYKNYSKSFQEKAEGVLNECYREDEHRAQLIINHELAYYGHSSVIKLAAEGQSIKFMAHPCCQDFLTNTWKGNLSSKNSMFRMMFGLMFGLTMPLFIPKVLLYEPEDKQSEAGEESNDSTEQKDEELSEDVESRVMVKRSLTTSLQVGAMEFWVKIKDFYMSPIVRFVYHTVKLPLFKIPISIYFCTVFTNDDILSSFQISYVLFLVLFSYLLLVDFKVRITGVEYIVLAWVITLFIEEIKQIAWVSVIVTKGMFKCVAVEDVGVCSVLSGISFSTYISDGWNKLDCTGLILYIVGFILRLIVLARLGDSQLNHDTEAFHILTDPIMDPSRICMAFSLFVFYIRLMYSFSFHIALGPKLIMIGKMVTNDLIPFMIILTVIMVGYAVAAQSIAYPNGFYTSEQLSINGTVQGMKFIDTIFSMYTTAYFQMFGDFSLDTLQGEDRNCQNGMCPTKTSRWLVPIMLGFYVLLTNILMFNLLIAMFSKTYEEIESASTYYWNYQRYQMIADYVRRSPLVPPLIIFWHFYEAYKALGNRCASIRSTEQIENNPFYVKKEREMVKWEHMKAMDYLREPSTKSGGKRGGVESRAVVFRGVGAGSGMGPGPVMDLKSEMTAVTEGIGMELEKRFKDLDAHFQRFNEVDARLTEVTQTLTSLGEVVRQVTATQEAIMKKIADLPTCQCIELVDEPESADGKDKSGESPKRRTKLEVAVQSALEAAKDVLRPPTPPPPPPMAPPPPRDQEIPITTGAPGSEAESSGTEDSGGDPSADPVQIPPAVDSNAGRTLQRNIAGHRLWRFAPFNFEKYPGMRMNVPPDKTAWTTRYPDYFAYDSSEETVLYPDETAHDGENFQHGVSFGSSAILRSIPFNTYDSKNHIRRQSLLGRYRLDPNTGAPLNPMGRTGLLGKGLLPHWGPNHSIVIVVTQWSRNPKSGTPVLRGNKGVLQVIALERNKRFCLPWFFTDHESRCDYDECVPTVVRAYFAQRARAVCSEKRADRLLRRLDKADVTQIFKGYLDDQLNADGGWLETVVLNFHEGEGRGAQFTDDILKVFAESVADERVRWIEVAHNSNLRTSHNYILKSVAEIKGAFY
Chain of Sm.TRPMPZQ (A0A5K4F0X5 entry or part of it): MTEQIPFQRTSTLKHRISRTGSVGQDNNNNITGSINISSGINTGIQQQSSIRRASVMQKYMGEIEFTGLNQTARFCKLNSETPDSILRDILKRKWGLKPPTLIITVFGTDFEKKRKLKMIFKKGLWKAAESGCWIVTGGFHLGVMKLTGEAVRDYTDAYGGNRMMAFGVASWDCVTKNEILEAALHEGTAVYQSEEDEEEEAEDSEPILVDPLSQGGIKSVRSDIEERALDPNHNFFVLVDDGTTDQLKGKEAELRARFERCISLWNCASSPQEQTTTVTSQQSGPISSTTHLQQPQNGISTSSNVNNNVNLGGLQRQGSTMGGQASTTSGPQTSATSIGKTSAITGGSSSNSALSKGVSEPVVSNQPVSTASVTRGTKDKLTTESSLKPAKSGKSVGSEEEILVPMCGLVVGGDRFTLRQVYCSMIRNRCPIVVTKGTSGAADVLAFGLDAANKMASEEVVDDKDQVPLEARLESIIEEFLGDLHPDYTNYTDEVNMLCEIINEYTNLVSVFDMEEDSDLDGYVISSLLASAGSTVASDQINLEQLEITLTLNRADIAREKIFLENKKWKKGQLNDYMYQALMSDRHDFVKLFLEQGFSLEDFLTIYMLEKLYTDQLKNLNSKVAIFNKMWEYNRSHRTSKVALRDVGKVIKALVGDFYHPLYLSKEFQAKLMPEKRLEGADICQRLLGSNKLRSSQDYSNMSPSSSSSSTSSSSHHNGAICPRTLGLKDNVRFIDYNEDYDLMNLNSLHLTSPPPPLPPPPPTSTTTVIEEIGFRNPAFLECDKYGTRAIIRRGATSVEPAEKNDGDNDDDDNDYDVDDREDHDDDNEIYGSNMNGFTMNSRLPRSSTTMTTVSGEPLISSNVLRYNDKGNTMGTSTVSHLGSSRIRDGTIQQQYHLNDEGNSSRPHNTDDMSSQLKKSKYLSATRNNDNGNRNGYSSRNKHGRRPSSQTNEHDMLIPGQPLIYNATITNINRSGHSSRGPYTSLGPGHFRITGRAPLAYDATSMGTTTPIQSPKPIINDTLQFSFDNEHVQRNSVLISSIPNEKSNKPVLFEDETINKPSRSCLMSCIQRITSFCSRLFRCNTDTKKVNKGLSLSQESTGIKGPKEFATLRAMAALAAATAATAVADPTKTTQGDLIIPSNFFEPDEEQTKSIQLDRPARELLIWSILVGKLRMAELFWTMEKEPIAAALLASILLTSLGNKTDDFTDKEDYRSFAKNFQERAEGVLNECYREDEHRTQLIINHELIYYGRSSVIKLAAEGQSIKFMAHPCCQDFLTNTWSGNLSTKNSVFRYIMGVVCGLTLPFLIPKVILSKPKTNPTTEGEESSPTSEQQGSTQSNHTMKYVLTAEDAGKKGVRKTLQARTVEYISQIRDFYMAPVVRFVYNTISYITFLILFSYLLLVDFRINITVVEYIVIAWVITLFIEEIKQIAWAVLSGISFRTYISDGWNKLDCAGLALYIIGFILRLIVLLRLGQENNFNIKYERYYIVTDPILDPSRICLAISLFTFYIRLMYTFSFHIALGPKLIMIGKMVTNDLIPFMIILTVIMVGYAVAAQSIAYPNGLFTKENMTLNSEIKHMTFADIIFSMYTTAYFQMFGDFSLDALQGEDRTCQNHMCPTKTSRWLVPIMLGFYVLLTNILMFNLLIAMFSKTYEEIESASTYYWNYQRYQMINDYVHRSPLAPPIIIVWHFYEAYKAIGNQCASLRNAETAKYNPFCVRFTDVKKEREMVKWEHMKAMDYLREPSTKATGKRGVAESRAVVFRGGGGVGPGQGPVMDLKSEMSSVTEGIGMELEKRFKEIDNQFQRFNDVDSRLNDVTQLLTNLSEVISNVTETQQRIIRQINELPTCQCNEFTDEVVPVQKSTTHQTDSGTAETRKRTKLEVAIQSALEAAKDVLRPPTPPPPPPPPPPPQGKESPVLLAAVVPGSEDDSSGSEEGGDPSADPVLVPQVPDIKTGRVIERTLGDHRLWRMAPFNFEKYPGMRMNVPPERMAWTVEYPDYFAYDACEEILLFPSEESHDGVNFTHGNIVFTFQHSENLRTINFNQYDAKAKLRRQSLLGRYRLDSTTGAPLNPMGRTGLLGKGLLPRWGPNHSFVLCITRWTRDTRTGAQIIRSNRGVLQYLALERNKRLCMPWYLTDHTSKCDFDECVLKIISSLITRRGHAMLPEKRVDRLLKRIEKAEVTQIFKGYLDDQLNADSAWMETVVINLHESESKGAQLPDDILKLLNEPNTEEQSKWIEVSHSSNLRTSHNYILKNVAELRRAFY

| EC50 (Sm.TRPMPZQ) | IC50 ([2]; 12 h postincubation) [µM] | SMILES | this work: EC50 (μM) Sm.TRPMPZQ (Sm.TRPMPZQ) | previous studies H. nana in vivo (activity grade, worm reduction) (H. nana) | previous studies S. mansoni in vitro (activity grade) (S. mansoni [1]) | IC50 ([2]; after 24 h) [µM] | previous studies S. mansoni in vivo (activity grade, worm reduction) (S. mansoni [3]) | activity at Sm.TRPMPZQ (in words) (Sm.TRPMPZQ) | activity at cestode TRPMPZQ orthologs (in words) (Eg.TRPMPZQ) | concentrations activating both cestode TRPMPZQ representatives (Eg.TRPMPZQ) [µM] | contraction of the protoscoleces (in words) ([2]; (±)-PZQ 1 μM, (R)-2 30 μM, (S)-2 100 μM, compared with vehicle control) | effect of prolonged treatment on protoscoleces (in words) ([2]; after 24 h) | effect of low concentrations on motility (in words) ([2]; low concentrations, early time points (0.5 h)) |
| --- | --- | --- | --- | --- | --- | --- | --- | --- | --- | --- | --- | --- | --- |
|  |  | O=C(c1cccnc1)N1CC(=O)N2CCc3ccccc3[C@H]2C1 [(S)-2] | inactive | ++ | 0 (“0” indicates no effect at ≤320 μM) | ~30 | 0 |  |  |  |  |  |  |
|  |  | CN(C)c1ccc(C(=O)N2CC(=O)N3CCc4ccccc4C3C2)cc1 (stereo not shown) [Compound 5] | inactive | +++ | 0 (“0” indicates no effect at ≤320 μM) |  | ++ |  |  |  |  |  |  |
| 11.6 µM and 12 µM |  | Nc1ccc(C(=O)N2CC(=O)N3CCc4ccccc4C3C2)cc1 (stereo not shown) [Compound 6] |  | +++ | ++ (“++” indicates a maximal effect ≤320 μM) |  | ++ |  |  |  |  |  |  |
|  |  | O=C(c1cccnc1)N1CC(=O)N2CCc3ccccc3C2C1 (racemic) [(±)-2] | inactive | +++ | + (“+” indicates a less than maximal effect at ≤320 μM) |  | + | little activity | low-micromolar potency |  |  |  |  |
|  |  | O=C(c1ccc([N+](=O)[O-])cc1)N1CC(=O)N2CCc3ccccc3C2C1 (stereo not shown) [Compound 3] | inactive | ++ | 0 (“0” indicates no effect at ≤320 μM) |  | + |  |  |  |  |  |  |
|  |  | N[C@H]1CC[C@@H](C(=O)N2CC(=O)N3CCc4ccccc4C3C2)CC1 (stereo partly shown) [Compound 7] | inactive | + | 0 (“0” indicates no effect at ≤320 μM) |  | 0 | lacked activity | only weakly active |  |  |  |  |
|  |  | O=C(C1CC1)N1CC(=O)N2CCc3ccccc3C2C1 (stereo not shown) [Compound 8] | inactive | ++ | 0 (“0” indicates no effect at ≤320 μM) |  | + | Little activity | clearly active | > 10 |  |  |  |
|  |  | O=C(C1CCCCC1)N1CC(=O)N2CCc3ccccc3[C@@H]2C1 [(R)-PZQ, reference compound] |  | +++ | +++ (“+++” indicates a maximal effect ≤3.2 μM) |  | +++ |  |  |  |  |  |  |
|  |  | O=C(C1CCCCC1)N1CC(=O)N2CCc3ccccc3[C@H]2C1 [(S)-PZQ, reference compound] |  | ++ | ++ (“++” indicates a maximal effect ≤320 μM) |  | + |  |  |  |  |  |  |
|  |  | CNc1ccc(C(=O)N2CC(=O)N3CCc4ccccc4C3C2)cc1 (stereo not shown) [Compound 4] | inactive | +++ | 0 (“0” indicates no effect at ≤320 μM) |  | ++ |  |  |  |  |  |  |
|  | ~0.1 | O=C(C1CCCCC1)N1CC(=O)N2CCc3ccccc3C2C1 (stereo not shown) [Compound 1, praziquantel] |  | +++ | +++ (“+++” indicates a maximal effect ≤3.2 μM) |  | +++ |  |  |  | sustained contraction | toxic | stimulated motility |
| > 100 µM |  | O=C(c1cccnc1)N1CC(=O)N2CCc3ccccc3[C@@H]2C1 [(R)-2] |  | +++ | 0 (“0” indicates no effect at ≤320 μM) | ~3 | ++ |  |  |  |  |  |  |
